Test results taken from ChEMBL document CHEMBL4477224, “Antidiabetic effect, antioxidant activity, and toxicity of 3',4'-Di-O-acetyl-cis-khellactone in Streptozotocin-induced diabetic rats” (Bioorg Med Chem Lett, 2016).

How the values were obtained:
Rattus norvegicus [1] = test: Antidiabetic activity in STZ-induced diabetic Wistar rat assessed as body weight at 15 mg/kg, po administered on day 7 post STZ challenge measured immediately post dosage (reference value: 319.4 +/- 6.9 g); type: functional
Rattus norvegicus [2] = test: Antidiabetic activity in STZ-induced diabetic Wistar rat assessed as change in fasting blood glucose level at 15 mg/kg, po administered on day 7 post STZ challenge measured immediately post dosage by glucometry (reference value: 72.90 +/- 5.2 mg/dl); type: functional
Rattus norvegicus [3] = test: Antidiabetic activity in STZ-induced diabetic Wistar rat assessed as change in fasting blood glucose level at 15 mg/kg, po administered for 7 days post STZ challenge measured on day 14 by glucometry (reference value: 72.90 +/- 5.2 mg/dl); type: functional
Rattus norvegicus [4] = test: Antidiabetic activity in STZ-induced diabetic Wistar rat blood assessed as creatinine level at 15 mg/kg, po administered for 15 days (reference value: 0.56 +/- 0.03 mg/dl); type: functional
Rattus norvegicus [5] = test: Antidiabetic activity in STZ-induced diabetic Wistar rat blood assessed as urea level at 15 mg/kg, po administered for 15 days (reference value: 62.98 +/- 6.21 mg/dl); type: functional
Rattus norvegicus [6] = test: Antidiabetic activity in STZ-induced diabetic Wistar rat blood assessed as HDL level at 15 mg/kg, po administered for 15 days (reference value: 36.31 +/- 0.51 mg/dl); type: functional
Rattus norvegicus [7] = test: Antidiabetic activity in STZ-induced diabetic Wistar rat blood assessed as LDL level at 15 mg/kg, po administered for 15 days (reference value: 23.11 +/- 9.82 mg/dl); type: functional
[8] = Toxicity in STZ-induced diabetic Wistar rat kidney assessed as macroscopic pathologic lesions at 15 mg/kg, po administered for 15 days; type: organism-based; conditions: in vivo, 360 h
Rattus norvegicus [9] = test: Antioxidant activity in STZ-induced diabetic Wistar rat liver assessed as catalase level measured as H2O2 consumption per mg of protein at 15 mg/kg, po administered for 15 days (reference value: 68.9 +/- 11.1 microM/min); type: functional
Rattus norvegicus [10] = test: Antioxidant activity in STZ-induced diabetic Wistar rat liver assessed as glutathione peroxidase level measured as NADPH consumption per mg of protein at 15 mg/kg, po administered for 15 days (reference value: 10 +/- 0.6 microM/min); type: functional
[11] = Mutagenicity in Salmonella typhimurium TA98 assessed as mutagenic index at 8.65 uM/plate after 48 hrs in presence of S9 fraction by Ames test relative to control; type: toxicity, subcellular; conditions: salmonella enterica subsp. enterica serovar typhimurium, s9, 48 h
[12] = Mutagenicity in Salmonella typhimurium TA98 assessed as mutagenic index at 34.60 uM/plate after 48 hrs in presence of S9 fraction by Ames test relative to control; type: toxicity, subcellular; conditions: salmonella enterica subsp. enterica serovar typhimurium, s9, 48 h, 34.6 µM
[13] = Mutagenicity in Salmonella typhimurium TA98 assessed as mutagenic index at 50 uM/plate after 48 hrs in presence of S9 fraction by Ames test relative to control; type: toxicity, subcellular; conditions: salmonella enterica subsp. enterica serovar typhimurium, s9, 48 h
[14] = Mutagenicity in Salmonella typhimurium TA98 assessed as mutagenic index at 100 uM/plate after 48 hrs in absence of S9 fraction by Ames test relative to control; type: toxicity; conditions: salmonella enterica subsp. enterica serovar typhimurium, s9, 48 h
[15] = Mutagenicity in Salmonella typhimurium TA100 assessed as mutagenic index at 50 uM/plate after 48 hrs in presence of S9 fraction by Ames test relative to control; type: toxicity, subcellular; conditions: salmonella enterica subsp. enterica serovar typhimurium, s9, 48 h
[16] = Mutagenicity in Salmonella typhimurium TA100 assessed as mutagenic index at 50 uM/plate after 48 hrs in absence of S9 fraction by Ames test relative to control; type: toxicity; conditions: salmonella enterica subsp. enterica serovar typhimurium, s9, 48 h
[17] = Mutagenicity in Salmonella typhimurium TA102 assessed as mutagenic index at 100 uM/plate after 48 hrs in presence of S9 fraction by Ames test relative to control; type: toxicity, subcellular; conditions: salmonella enterica subsp. enterica serovar typhimurium, s9, 48 h
[18] = Mutagenicity in Salmonella typhimurium TA102 assessed as mutagenic index at 8.65 uM/plate after 48 hrs in absence of S9 fraction by Ames test relative to control; type: toxicity; conditions: salmonella enterica subsp. enterica serovar typhimurium, s9, 48 h
[19] = Mutagenicity in Salmonella typhimurium TA102 assessed as mutagenic index at 34.60 uM/plate after 48 hrs in absence of S9 fraction by Ames test relative to control; type: toxicity; conditions: salmonella enterica subsp. enterica serovar typhimurium, s9, 48 h, 34.6 µM
Rattus norvegicus [20] = test: Antidiabetic activity in STZ-induced diabetic Wistar rat assessed as increase in body weight at 15 mg/kg, po administered for 15 days post STZ challenge measured on day 21; type: functional

**Q.** With `CC(=O)O[C@@H]1c2c(ccc3ccc(=O)oc23)OC(C)(C)[C@@H]1OC(C)=O` (relative stereo) [QUIANHUCOUMARIN D] as the compound, how does the Activity (Rattus norvegicus [1]) read?
**A.** 335.3 g

**Q.** And the Activity (Rattus norvegicus [2])?
**A.** 363.2 mg/dL

**Q.** What about the Activity (Rattus norvegicus [3]) of the same compound?
**A.** 280.7 mg/dL

**Q.** And the Activity (Rattus norvegicus [4])?
**A.** 0.51 mg/dL

**Q.** What about the Activity (Rattus norvegicus [5]) of the same compound?
**A.** 42.04 mg/dL

**Q.** What about the Activity (Rattus norvegicus [6]) of the same compound?
**A.** 29.77 mg/dL

**Q.** And the Activity (Rattus norvegicus [7])?
**A.** 22.38 mg/dL

**Q.** And the Activity [8]?
**A.** Non-Toxic

**Q.** What about the Activity (Rattus norvegicus [9]) of the same compound?
**A.** 94.8 µM/min

**Q.** And the Activity (Rattus norvegicus [10])?
**A.** 119 µM/min

**Q.** What about the Ratio [11] of the same compound?
**A.** 1.1

**Q.** What about the Ratio [12] of the same compound?
**A.** 1.2

**Q.** And the Ratio [13]?
**A.** 1.1

**Q.** What about the Ratio [14] of the same compound?
**A.** 0.4

**Q.** What about the Ratio [15] of the same compound?
**A.** 0.9

**Q.** What about the Ratio [16] of the same compound?
**A.** 0.9

**Q.** And the Ratio [17]?
**A.** 0.9

**Q.** And the Ratio [18]?
**A.** 0.7

**Q.** What about the Ratio [19] of the same compound?
**A.** 1

**Q.** And the Activity (Rattus norvegicus [20])?
**A.** 45.7 g
